75 molecules from PubChem BioAssay AID2740 (NMMLSC, 2010) can be followed below.

A short description of the assay: TOR pathway RPL19A-GFP modulators, concentration series – cell-based, S. cerevisiae, flow cytometry, MLPCN hits, dose response (AID 2740).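 Further: background is signal of the same compound in parental non-GFP s288c yeast.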 To be noted: S. cerevisiae RPL19A-GFP strain, flow cytometry fluorescence, 3 h; at 33 µM (top of the series).

Active and inactive are the calls of the source.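 How the source made its calls: active means compounds whose fitted half-maximal concentration for changing the GFP signal is at or below a set limit; inactive means the rest.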

With `Cc1ccccc1[C@]1(C)ON(c2ccccc2C(F)(F)F)C1=O`, the GFP fluorescence, lower = active (kMESF (background-subtracted)) was 42.8 (inactive).

As for `COc1cccc(/C=C2\C(=O)N(c3cccc(C)c3)C(=O)c3ccccc32)c1`, the GFP fluorescence, lower = active (kMESF (background-subtracted)) was 42.4 (inactive).

Take `CCc1cc(C(=O)Nc2nc(-c3ccccn3)cs2)sc1C`: the GFP fluorescence, lower = active (kMESF (background-subtracted)) was 23.7 (inactive).

On to `Cc1c(C(=O)Nc2nc(-c3ccccn3)cs2)oc2ccccc12`, for which the GFP fluorescence, lower = active (kMESF (background-subtracted)) was 33.3 (inactive).

On to `Cc1ccc(S(=O)(=O)c2ncccc2[N+](=O)[O-])cc1`, for which the GFP fluorescence, lower = active (kMESF (background-subtracted)) was 47.4 (inactive).

Regarding `CC(=O)Oc1ccc(/C=c2\sc3ncnn3c2=O)cc1`, the GFP fluorescence, lower = active (kMESF (background-subtracted)) was 50 (inactive).

Turning to `CCCOc1ccc(C(=O)NNC(=S)NC(=O)CC)cc1`, the GFP fluorescence, lower = active (kMESF (background-subtracted)) was 50.5 (inactive).

On to `NC(=O)COc1ccc(C(=O)/C=C2/C(=O)Nc3ccccc32)cc1`, for which the GFP fluorescence, lower = active (kMESF (background-subtracted)) was 40.3 (inactive).

For `O=C(Sc1cccc2cccnc12)c1ccccc1Br`, the GFP fluorescence, lower = active (kMESF (background-subtracted)) is 34.8 (inactive).

As for `Cc1cccc(N=Nc2ccc(O)c3ncccc23)c1`, the GFP fluorescence, lower = active (kMESF (background-subtracted)) is 33.3 (inactive).

As for `Cc1cc(S(=O)(=O)ON2C(=O)c3ccccc3C2=O)ccc1F`, the GFP fluorescence, lower = active (kMESF (background-subtracted)) is 43.3 (inactive).

Regarding `Oc1c(CN2CCCCC2)cc(Br)c2cccnc12`, the GFP fluorescence, lower = active (kMESF (background-subtracted)) was 43.4 (inactive).

`COc1ccccc1[C@@]1(C)ON(c2ccccc2C(F)(F)F)C1=O`: the GFP fluorescence, lower = active (kMESF (background-subtracted)) is 22.7 (inactive).

`CC(C)C[C@]1(c2ccccc2)ON(c2ccccc2C(F)(F)F)C1=O`: the GFP fluorescence, lower = active (kMESF (background-subtracted)) is 36.6 (inactive).

Regarding `O=[N+]([O-])c1cc(CN2CCN(c3cccc(C(F)(F)F)c3)CC2)c2cccnc2c1O`, the GFP fluorescence, lower = active (kMESF (background-subtracted)) was 22.7 (inactive).

On to `O=C(Nc1nnc(-c2ccc(F)cc2)o1)c1cccc([N+](=O)[O-])c1`, for which the GFP fluorescence, lower = active (kMESF (background-subtracted)) is 43.5 (inactive).

With `CCN(CC)C(=O)Oc1ccnc2cc(Cl)ccc12`, the GFP fluorescence, lower = active (kMESF (background-subtracted)) is 41.8 (inactive).

Take `CCN1/C(=C/c2ccc3cc(C)ccc3[n+]2CC)Sc2ccc3sccc3c21`: the GFP fluorescence, lower = active (kMESF (background-subtracted)) was 31.5 (inactive).

As for `O=S(=O)(/N=C(\Sc1ccc(Cl)cc1)c1ccccc1)c1ccccc1`, the GFP fluorescence, lower = active (kMESF (background-subtracted)) is 33.6 (inactive).

As for `CN(O)/C=c1/ccc2c(n1)C(=O)C=CC=2`, the GFP fluorescence, lower = active (kMESF (background-subtracted)) is 39.2 (inactive).

Consider `CS(=O)(=O)c1nc(-c2ccccc2)cc(C(F)(F)F)n1`, for which the GFP fluorescence, lower = active (kMESF (background-subtracted)) is 31.9 (inactive).

Regarding `Cc1ccc(C)c(/C=C/C(=O)c2ccccc(=O)c2O)c1`, the GFP fluorescence, lower = active (kMESF (background-subtracted)) is 15.8 (inactive).

Turning to `Cc1ccc(/C=C/C(=O)c2ccc([N+](=O)[O-])o2)cc1`, the GFP fluorescence, lower = active (kMESF (background-subtracted)) was 46.1 (inactive).

For the molecule `O=c1c(-c2ccc(Cl)cc2)[n+]([O-])c2ccccc2n1O`, the GFP fluorescence, lower = active (kMESF (background-subtracted)) was 30.9 (inactive).

In the case of `O=C(NNC(=S)NC(=O)C12CC3CC(CC(C3)C1)C2)c1ccncc1`, the GFP fluorescence, lower = active (kMESF (background-subtracted)) was 46.9 (inactive).

For the molecule `Cc1ccc(/C=C2\SC(=S)N(Cc3ccccc3)C2=O)o1`, the GFP fluorescence, lower = active (kMESF (background-subtracted)) is 39.4 (inactive).

For `CC(=O)N(C(C)=O)c1ncnc2c1c(-c1ccc(Cl)cc1)nn2C(C)(C)C`, the GFP fluorescence, lower = active (kMESF (background-subtracted)) was 42.9 (inactive).

As for `Cc1cc(O)c(C(=O)/C=C/c2ccc(Cl)cc2)c(=O)o1`, the GFP fluorescence, lower = active (kMESF (background-subtracted)) was 33 (inactive).

In the case of `Cc1ccc(C(=O)NNC(=S)NC(=O)c2ccco2)cc1`, the GFP fluorescence, lower = active (kMESF (background-subtracted)) was 49.1 (inactive).

`O=[N+]([O-])c1c(Nc2ccccn2)cc(Cl)c2nonc12`: the GFP fluorescence, lower = active (kMESF (background-subtracted)) is 68.3 (inactive).

In the case of `CC1(c2ccccc2)ON(c2ccccc2C(F)(F)F)C1=O` (stereo not given), the GFP fluorescence, lower = active (kMESF (background-subtracted)) was 40 (inactive).

Turning to `CC(OC(=O)c1ccco1)C(=O)Nc1nc(-c2ccccc2)cs1` (stereo not given), the GFP fluorescence, lower = active (kMESF (background-subtracted)) is 37.1 (inactive).

For `COCCN1C(=O)/C(=C/c2ccc(N3CCCC3)cc2C)SC1=S`, the GFP fluorescence, lower = active (kMESF (background-subtracted)) is 43 (inactive).

Take `Cc1cc(C)nc(S/C=C/C(=O)c2ccccc2)n1`: the GFP fluorescence, lower = active (kMESF (background-subtracted)) was 47.4 (inactive).

On to `CC[C@]1(c2ccccc2C)ON(c2ccccc2C(F)(F)F)C1=O`, for which the GFP fluorescence, lower = active (kMESF (background-subtracted)) is 40 (inactive).

`COc1cc(/C=C2\C(=O)ON=C2c2ccccc2)cc(OC)c1OC`: the GFP fluorescence, lower = active (kMESF (background-subtracted)) is 33.4 (inactive).

As for `CCn1c(/C=C/c2ccc([N+](=O)[O-])o2)nc2ccccc2c1=O`, the GFP fluorescence, lower = active (kMESF (background-subtracted)) was -37.1 (inactive).

On to `Cc1cccc(N=C2NC(=O)/C(=C/C=C/c3ccco3)S2)c1C`, for which the GFP fluorescence, lower = active (kMESF (background-subtracted)) was 34.7 (inactive).

For `COC(=O)CCS(=O)(=O)c1nc(-c2ccccc2)cc(C(F)(F)F)n1`, the GFP fluorescence, lower = active (kMESF (background-subtracted)) is 37.3 (inactive).

In the case of `CC(=O)Oc1oc(-c2ccccc2)nc1C=Nc1ccccc1`, the GFP fluorescence, lower = active (kMESF (background-subtracted)) was 39.7 (inactive).

Regarding `O=C(Nc1nc(-c2ccccn2)cs1)C1COc2ccccc2O1` (stereo not given), the GFP fluorescence, lower = active (kMESF (background-subtracted)) is 21.1 (inactive).

For the molecule `COc1cc(/C=C/c2ccc3c(Br)cc(Br)c(O)c3n2)ccc1O`, the GFP fluorescence, lower = active (kMESF (background-subtracted)) was 29.4 (inactive).

For `COc1ccc(N=Cc2nc(-c3ccccc3)oc2OC(C)=O)cc1`, the GFP fluorescence, lower = active (kMESF (background-subtracted)) is 40.2 (inactive).

For the molecule `C#CCOc1c(Br)cc(/C=C2/C(=O)ON=C2C)cc1OC`, the GFP fluorescence, lower = active (kMESF (background-subtracted)) was 32.9 (inactive).

Regarding `CCN(CC(=O)NC(C)(C)C)C(=O)COc1c(Cl)cc(Cl)c2ccc(C)nc12`, the GFP fluorescence, lower = active (kMESF (background-subtracted)) is 50.3 (inactive).

As for `O=C1N(c2ccccc2C(F)(F)F)O[C@]1(c1ccccc1)C1CCCCC1`, the GFP fluorescence, lower = active (kMESF (background-subtracted)) was 36.4 (inactive).

As for `O=C1N(c2ccccc2C(F)(F)F)O[C@@]1(c1ccccc1)C1CCCCC1`, the GFP fluorescence, lower = active (kMESF (background-subtracted)) is 37.6 (inactive).

As for `CN(c1ccccc1)c1ccc(/C=c2\s/c(=C(/C#N)C(=O)C(C)(C)C)n(Cc3ccco3)c2=O)cc1`, the GFP fluorescence, lower = active (kMESF (background-subtracted)) is 56 (inactive).

In the case of `Cc1cc(C2CCCCC2)n(O)c(=O)c1`, the GFP fluorescence, lower = active (kMESF (background-subtracted)) is 42.8 (inactive).

For `COc1cc(N2C(=O)C=CC2=O)c(OC)cc1Cl`, the GFP fluorescence, lower = active (kMESF (background-subtracted)) is 18.8 (inactive).

As for `COc1cc(/C=C2\CC/C(=C\c3cc(OC)c(O)c(OC)c3)C2=O)cc(OC)c1O`, the GFP fluorescence, lower = active (kMESF (background-subtracted)) was 39.6 (inactive).

Take `Cc1cc(C(=O)COC(=O)c2ccc[nH]c2=O)c(C)n1-c1ccccc1F`: the GFP fluorescence, lower = active (kMESF (background-subtracted)) was 28.1 (inactive).

Take `O=C1c2ccccc2C(=O)N1OS(=O)(=O)c1ccc(F)cc1`: the GFP fluorescence, lower = active (kMESF (background-subtracted)) is 37.2 (inactive).

Turning to `COc1ccc(/C=C2/C(=O)ON=C2c2ccccc2)cc1OC`, the GFP fluorescence, lower = active (kMESF (background-subtracted)) was 39.5 (inactive).

Turning to `N/C(=N\OC(=O)c1ccc(Cl)cc1Cl)c1ccccc1`, the GFP fluorescence, lower = active (kMESF (background-subtracted)) is 39.4 (inactive).

On to `O=S(=O)(CCN(CCS(=O)(=O)C(F)(F)F)CC1CCCO1)C(F)(F)F` (stereo not given), for which the GFP fluorescence, lower = active (kMESF (background-subtracted)) is 27.1 (inactive).

In the case of `CC1=C/C(=N\OS(=O)(=O)c2ccccc2)C(C)=CC1=O`, the GFP fluorescence, lower = active (kMESF (background-subtracted)) was 17.1 (inactive).

`Oc1c(C(Nc2cccc(C(F)(F)F)c2)c2ccncc2)ccc2cccnc12` (stereo not given): the GFP fluorescence, lower = active (kMESF (background-subtracted)) is 45.3 (inactive).

As to `O=C(Nc1nnc(-c2ccc(Cl)cc2)o1)c1ccccc1Br`, the GFP fluorescence, lower = active (kMESF (background-subtracted)) is 37 (inactive).

As for `Oc1c(C(Nc2nc3ccccc3s2)c2ccco2)ccc2cccnc12` (stereo not given), the GFP fluorescence, lower = active (kMESF (background-subtracted)) is 43.4 (inactive).

In the case of `CCCN1CCc2c(sc(NC(=S)NC(=O)c3ccccc3)c2C#N)C1`, the GFP fluorescence, lower = active (kMESF (background-subtracted)) was 47.6 (inactive).

For `O=C(Oc1oc(-c2ccco2)nc1C=Nc1ccccc1)c1ccoc1`, the GFP fluorescence, lower = active (kMESF (background-subtracted)) was 46.5 (inactive).

`Cc1ccc(N2C(=O)C(Cl)=C(Nc3c(C)n(C)n(-c4ccccc4)c3=O)C2=O)cc1`: the GFP fluorescence, lower = active (kMESF (background-subtracted)) is 39 (inactive).

Regarding `O=C(Nc1cccc(C(F)(F)F)c1)Oc1ccc(Cl)c2cccnc12`, the GFP fluorescence, lower = active (kMESF (background-subtracted)) is 39.4 (inactive).

Turning to `O=C(Oc1c(Cl)cc(Cl)c2cccnc12)c1cccc([N+](=O)[O-])c1`, the GFP fluorescence, lower = active (kMESF (background-subtracted)) was 24.8 (inactive).

For `CCCCC1OC23CCCCC2C(C#N)(C(=N)O3)C1(C#N)C#N` (stereo not given), the GFP fluorescence, lower = active (kMESF (background-subtracted)) was 43.5 (inactive).

On to `Cc1ccc2nc(/C(C#N)=C/c3ccc(O)c(O)c3)[nH]c2c1`, for which the GFP fluorescence, lower = active (kMESF (background-subtracted)) was 43.8 (inactive).

For the molecule `O=C1C(Cl)=C(NCCc2ccccc2)C(=O)N1CCc1ccccc1`, the GFP fluorescence, lower = active (kMESF (background-subtracted)) is 43.1 (inactive).

Take `N/C(=N\OC(=O)c1cccc(Br)c1)c1ccccc1`: the GFP fluorescence, lower = active (kMESF (background-subtracted)) was 40.8 (inactive).

Turning to `Cc1sc(/C=C2\C(=O)ON=C2c2ccccc2)cc1Br`, the GFP fluorescence, lower = active (kMESF (background-subtracted)) is 45 (inactive).

Take `Cc1cccnc1Nc1nc(-c2ccccn2)cs1`: the GFP fluorescence, lower = active (kMESF (background-subtracted)) was 33.3 (inactive).

Take `C=CCn1c(C)c(/C=C/c2cc[n+](C)cc2)c2ccccc21`: the GFP fluorescence, lower = active (kMESF (background-subtracted)) is 52.8 (inactive).

As for `O=C1N(c2ccccc2C(F)(F)F)OC1(Cc1ccccc1)c1ccccc1` (stereo not given), the GFP fluorescence, lower = active (kMESF (background-subtracted)) was 45.8 (inactive).

For the molecule `Cc1ccc(/C=C2/SC(=S)N(C3CCCCC3)C2=O)o1`, the GFP fluorescence, lower = active (kMESF (background-subtracted)) was 38.3 (inactive).

For `CS(=O)(=O)N1N=C(c2ccccc2)CC1c1ccc2c(c1)OCO2` (stereo not given), the GFP fluorescence, lower = active (kMESF (background-subtracted)) was 36.9 (inactive).
